Assay results reported in US8841277B2, “Methods for treating non-small cell lung cancer using 5-azacytidine” (Celgene Corporation, priority 2009, dated 2014).
Entries after “also recorded” stand apart in the source; their conditions may differ. Read-outs that look alike come from different tables or passages of the source.

Experiments:
[1] = system: H1975 cells; test: Cell viability (CyQuant assay), H1975; format: cell-based; settings: 72 hours; for HillSlope / LogIC50 / IC50: H1975 viability, best-fit value; for EC50 / IC50: Homo sapiens, NCI-H1975; for EC50: H1975, read-out: EC50 of effect on viability
Description: (§1) Certain NSCLC cell lines (H460, H1299, A549, and H1975) were purchased from American Type Culture Collection (ATCC; Manassas, Va.). The H23NSCLC cell line was obtained from the National Cancer Institute (NCI; Bethesda, Md.). Cell lines were cultured in their respective media, as recommended by ATCC and NCI. AZA was manufactured at Aptuit (Greenwich, Conn.) for Celgene (Summit, N.J.), while DAC was purchased from Sigma-Aldrich (St. Louis, Mo.). In all experiments, cells were seeded 24 hours before drug treatment and incubated at 37° C./5% CO2, For cell viability assays, H460, H1299, A549, H23, and H1975 cells were seeded in triplicate at 1×10^3, 1×10^3, 1×10^3, 4×10^3, and 4×10^3 cells per well, respectively, in 96-well plates, using 200 μL of medium per well. Fresh drug was added every 24 hours by replacing medium with drug-containing medium. For all other assays, cells were seeded at 0.6-1.2×10^5 cells per well, in 6-well plates, using 4 mL of medium per well, with fresh drug added directly to the medium every 24 hours.
(§2) Cell viability was assessed using the CyQuant assay (Life Technologies Corporation; Carlsbad, Calif.). Fluorescence was measured with a spectrophotometer (Molecular Devices; Sunnyvale, Calif.), and EC50 values were calculated in Prism® version 5.01 (GraphPad Software, Inc.; La Jolla, Calif.), using results from three independent experiments.
(§3) The six data sets represent calculations of EC50 values from raw data using Prism®. The standard deviation among the three independent experiments was determined at each drug concentration. For some of the cell lines, Prism® was not able to calculate the EC50 for DAC. For those curves that an EC50 was available, the SE (Std. Error) was acceptable (SE of the logEC50 should be less than 0.5), meaning that the standard errors were not too large. The 95% Confidence Intervals for the EC50 were considered as a measure of error.

[2] = system: H1299 cells; test: Gene expression microarray analysis, H1299; format: cell-based, human; settings: 48 hours; for Downregulated Genes: AZA-Specific / DAC-Specific Genes (number) / Upregulated Genes: AZA-Specific / DAC-Specific Genes (number) / Downregulated Genes: Genes in Common (number) / Upregulated Genes: Genes in Common (number): H1299; for Downregulated Genes: Genes in Common (number) / Upregulated Genes: Genes in Common (number): regulated by both AZA and DAC;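 as to Downregulated Genes: AZA-Specific / DAC-Specific Genes (number): drug dose range 0.3 to 3 µM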;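 as to Downregulated Genes: Genes in Common (number): drug dose range 0.3 to 3 µM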;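 as to Upregulated Genes: AZA-Specific / DAC-Specific Genes (number): drug dose range 0.3 to 3 µM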;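 as to Upregulated Genes: Genes in Common (number): drug dose range 0.3 to 3 µM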
Description: Cells were lysed using the TRIzol reagent (Life Technologies Corporation) and total RNA was isolated using miRNeasy (Qiagen). Double-stranded cDNA and biotin-labeled cRNA were synthesized using 100 ng of total RNA using Ambion's MessageAmp Premier RNA Amplification Kit (ABI; Foster City, Calif.). Biotin-labeled cRNA, at 10 μg, was fragmented and hybridized to each human U133A 2.0 genechip (Affymetrix; Santa Clara, Calif.). The GC-RMA algorithm was used for normalization and all analyses were done using GeneSpring 7.3 (Agilent; Santa Clara, Calif.). Averaged signals from biological duplicate samples were used to determine fold change (Treated vs. Untreated), with an absolute fold change of ≧1.7 defining regulated genes. NextBio was used to identify regulated Gene Ontology biogroups from lists of regulated genes. The top 15 biogroups are those with the lowest p-values calculated within NextBio.
The number of genes modulated in common between the two drugs was low.
Functional groupings of the modulated genes were determined using Gene Ontology classifications in Nextbio (http://www.nextbio.com/).

[3] = system: NSCLC cell lines; test: Cell viability dose-response profiles, all cell lines; format: cell-based; settings: 72 hours; dose range
Description: as §1, with “For all other assays, cells were seeded at 0.6-1.2×10^5 cells per well, in 6-well plates, using 4 mL of medium per well, with fresh drug added directly to the medium every 24 hours.” left out
as §2
The six data sets represent calculations of EC50 values from raw data using Prism®. The standard deviation among the three independent experiments was determined at each drug concentration. […]

[4] = system: A549 cells; test: Cell cycle distribution (NIM-DAPI), A549; format: cell-based
From the text: (§4) These studies examined the cell cycle distribution of NSCLC cells treated with AZA or DAC using NIM-DAPI analysis.
(§5) For cell cycle distribution, cells were stained with the NIM-DAPI reagent (Beckman Coulter, Inc.; Fullerton, Calif.). For measurement of early- and late-apoptotic cell populations, cells were stained with AnnexinV-FITC and 7-AAD reagents (Beckman Coulter, Inc.). Samples were processed according to manufacturer's instructions and analyzed on a Cell Lab Quanta MPL flow cytometer (Beckman Coulter, Inc.). […] Data were also collected for untreated cells as control.

[5] = system: NSCLC cells; test: Western analysis of DNA damage and cell death markers, summary; format: cell-based; settings: H460, A549, H1299 studies
Description: These studies also examined apoptosis using an assay for PARP cleavage. Cells studied included H460, A549, and H1299 cells.
For western analyses of protein levels, cells were washed with PBS and lysed with RIPA buffer (Cell Signaling Technology, Inc.; Danvers, Mass.) containing 350 mM NaCl and 0.1% SDS. Cell lysates were sonicated with two 5-second bursts under low amplitude (20%) using the Digital Sonic Dismembrator (Thermo Fisher Scientific, Inc.; Waltham, Mass.). Proteins were separated on 4-12% Bis-Tris NuPAGE gels (Life Technologies Corporation) and transferred to nitrocellulose membranes. DNMT1, phos-Histone-H2AX(Ser139), total Histone-H2AX, cleaved-PARP, p21, p53, and alpha-tubulin were detected using the Li-Cor Odyssey imaging system (Li-Cor Biotechnology; Lincoln, Nebr.), following incubation with the appropriate primary and secondary antibodies. The phos-Histone-H2AX(Ser139), cleaved-PARP, and p21 antibodies were from Cell Signaling Technology, Inc. The p53 and total Histone-H2AX (C-20) antibodies were from Santa Cruz Biotechnology, Inc. (Santa Cruz, Calif.). The alpha-tubulin and DNMT1 antibodies were purchased from EMD Chemicals, Inc. (Gibbstown, N.J.) and Abcam, Inc. (Cambridge, Mass.), respectively. The goat anti-Rabbit IRDye 680, goat anti-Mouse IRDye 800CW, and donkey anti-Goat IRDye 800CW secondary antibodies were from Li-Cor Biotechnology.

[6] = system: A549 cells; test: Apoptosis (AnnexinV-FITC/7-AAD), A549; format: cell-based; settings: 0.3-10 μM
From the text: as §5

[7] = system: H460 cells; test: Cell cycle distribution (NIM-DAPI), H460; format: cell-based
From the text: as §4, §5

[8] = system: H460 cells; test: Cell viability (CyQuant assay), H460; format: cell-based; settings: for HillSlope / LogIC50 / IC50: H460 viability, best-fit value
Description: as §1, §2, §3

[9] = administered at 15 mg/m^2; cited from earlier work
[10] = Homo sapiens, NCI-H460, 72 hours

For Nc1ncn([C@@H]2O[C@H](CO)[C@@H](O)[C@H]2O)c(=O)n1 [AZA, 4-amino-1-β-D-ribofuranosyl-1,3,5-triazin-2(1H)-one], which HillSlope [1] is on record?
The HillSlope was −0.6352.

What about the LogIC50 [1] of the same compound?
The LogIC50 was 0.8897.

And the EC50 [1]?
The EC50 was 7.8 µM.

What about the IC50 [1] of the same compound?
Its IC50 is 7.76 µM.

And the “Downregulated Genes: AZA-Specific / DAC-Specific Genes (number)” value ([2]; 0.3 μM)?
The value was 33.

What about the “Upregulated Genes: AZA-Specific / DAC-Specific Genes (number)” value ([2]; 0.3 μM) of the same compound?
Its value is 10.

What about the “Downregulated Genes: Genes in Common (number)” value (“Downregulated Genes: Genes” below) ([2]; 0.3 μM) of the same compound?
Its value is 45.

What about the “Upregulated Genes: Genes in Common (number)” value (“Upregulated Genes: Genes” below) ([2]; 0.3 μM) of the same compound?
The value was 55.

What about the “Downregulated Genes: AZA-Specific / DAC-Specific Genes (number)” value ([2]; 1.0 μM) of the same compound?
Its value is 393.

What about the “Upregulated Genes: AZA-Specific / DAC-Specific Genes (number)” value ([2]; 1.0 μM) of the same compound?
Its value is 435.

And the “Downregulated Genes: Genes” value ([2]; 1.0 μM)?
Its value is 107.

And the “Upregulated Genes: Genes” value ([2]; 1.0 μM)?
The value was 135.

What about the “Downregulated Genes: AZA-Specific / DAC-Specific Genes (number)” value ([2]; 3.0 μM) of the same compound?
The value was 991.

What about the “Upregulated Genes: AZA-Specific / DAC-Specific Genes (number)” value ([2]; 3.0 μM) of the same compound?
Its value is 1368.

And the “Downregulated Genes: Genes” value ([2]; 3.0 μM)?
The value was 153.

And the “Upregulated Genes: Genes” value ([2]; 3.0 μM)?
Its value is 173.

And the “Viability profile at high doses” value [3]?
Its value is “cytotoxic activities at high doses”.

And the “Cell cycle distribution (NIM DAPI)” value ([4]; 48-hour treatment, 0.3-10 μM)?
The value was “induced accumulation of cells in G2/M and Sub-G1”.

What about the “Cell cycle distribution (NIM DAPI)” value ([4]; 72-hour treatment, 0.3-10 μM) of the same compound?
Its value is “induced accumulation of cells in G2/M and Sub-G1”.

And the “Cell cycle distribution (NIM DAPI)” value ([4]; summary of studies)?
Its value is “induced accumulation of cells in G2/M and Sub-G1”.

What about the “Induction of DNA damage and cell death markers, concentration comparison” value [5] of the same compound?
Its value is “at lower concentrations than DAC”.

What about the “Early- and late-apoptotic cell populations (AnnexinV/7-AAD)” value ([6]; 48-hour treatment) of the same compound?
The value was “dramatic increase in early-apoptotic (AnnexinV^+ 7-AAD^−) and late-apoptotic (AnnexinV^+ 7-AAD^+) cells”.

What about the “Cell cycle distribution (NIM DAPI)” value ([7]; 30-hour treatment, 0.3-10 μM) of the same compound?
Its value is “induced accumulation of cells in Sub-G1”.

And the “Cell cycle distribution (NIM DAPI)” value ([7]; 60-hour treatment, 0.3-10 μM)?
The value was “decrease of cells in G0/G1 with a concomitant increase of cells in Sub-01”.

What about the “Cell cycle distribution (NIM DAPI)” value ([7]; summary of studies) of the same compound?
Its value is “induced accumulation of cells in Sub-G1”.

And the EC50 ([8]; H460, 72 hours, read-out: EC50 of effect on viability)?
Its EC50 is 1.7 µM.

What about the HillSlope ([8]; 72 hours) of the same compound?
The HillSlope was −0.8940.

What about the LogIC50 ([8]; 72 hours) of the same compound?
Its LogIC50 is 0.2413.

What about the EC50 ([8]; Homo sapiens, NCI-H460, 72 h, H460, read-out: EC50 of effect on viability) of the same compound?
The EC50 was 1.24 µM.

What about the IC50 [8, 10] of the same compound?
Its IC50 is 1.74 µM.

What does the source list for Nc1ncn([C@H]2C[C@H](O)[C@@H](CO)O2)c(=O)n1 [DAC, 5-aza-2′-deoxycytidine]?
Plasma levels [9]: 500 nM; HillSlope [1]: −0.2958; LogIC50 [1]: 2.452; EC50 [1]: > 25 µM; IC50 [1]: 283 µM; Fold more genes modulated than AZA ([2]; H1299 (stated for A549 and H1299 together), 0.3 μM): 4- to 20 fold; Downregulated Genes: AZA-Specific / DAC-Specific Genes (number) ([2]; 0.3 μM): 121; Upregulated Genes: AZA-Specific / DAC-Specific Genes (number) ([2]; 0.3 μM): 214; Downregulated Genes: Genes in Common (number) ([2]; 0.3 μM): 45; Upregulated Genes: Genes in Common (number) ([2]; 0.3 μM): 55; Downregulated Genes: AZA-Specific / DAC-Specific Genes (number) ([2]; 1.0 μM): 170; Upregulated Genes: AZA-Specific / DAC-Specific Genes (number) ([2]; 1.0 μM): 238; Downregulated Genes: Genes in Common (number) ([2]; 1.0 μM): 107; Upregulated Genes: Genes in Common (number) ([2]; 1.0 μM): 135; Downregulated Genes: AZA-Specific / DAC-Specific Genes (number) ([2]; 3.0 μM): 257; Upregulated Genes: AZA-Specific / DAC-Specific Genes (number) ([2]; 3.0 μM): 303; Downregulated Genes: Genes in Common (number) ([2]; 3.0 μM): 153; Upregulated Genes: Genes in Common (number) ([2]; 3.0 μM): 173; Viability profile at high doses [3]: cytostatic activity at high doses; Cell cycle distribution (NIM DAPI) ([4]; 48-hour treatment, 0.3-10 μM): induced an increase of cells in G2/M; Cell cycle distribution (NIM DAPI) ([4]; 72-hour treatment, 0.3-10 μM): induced an increase of cells in G2/M; Cell cycle distribution (NIM DAPI) ([4]; summary of studies): induced an increase of cells in G2/M; Early- and late-apoptotic cell populations (AnnexinV/7-AAD) ([6]; 48-hour treatment): very slight increase in these cell populations; Early- and late-apoptotic cell populations (AnnexinV/7-AAD) ([6]; 72-hour treatment): very slight increase in these cell populations; also recorded: slight increase in early-apoptotic (AnnexinV^+ 7-AAD^−) cells only; Cell cycle distribution (NIM DAPI) ([7]; 30-hour treatment, 0.3-10 μM): induced accumulation of cells in Sub-G1; Cell cycle distribution (NIM DAPI) ([7]; 60-hour treatment, 0.3-10 μM): slight increase in Sub-G1; Cell cycle distribution (NIM DAPI) ([7]; summary of studies): induced accumulation of cells in Sub-G1; HillSlope ([8]; 72 hours): −0.3814; LogIC50 ([8]; 72 hours): 2.053; EC50 ([8]; Homo sapiens, NCI-H460, H460, 72 hours, read-out: EC50 of effect on viability): > 25 µM; IC50 [8, 10]: 113 µM
